# Patent US20250152592A1, “PHARMACEUTICAL COMPOSITION COMPRISING ALLOPURINOL, FEBUXOSTAT OR PHARMACEUTICALLY ACCEPTABLE SALT THEREOF FOR PREVENTION OR TREATMENT OF CHRONIC KIDNEY DISEASE IN SUBJECT HAVING HIGH SERUM URIC ACID CONCENTRATION” (Indream Healthcare Inc., priority 2022, published 2025)
# Test system: patients with gout and a history of major cardiovascular diseases
# Experiment: eGFR over time by average serum uric acid concentration, analysis of clinical trial data
# Format: in vivo, human
# Conditions: for eGFR Mean (95% CI): febuxostat group
# Experimental: In order to evaluate non-inferiority of febuxostat to allopurinol related to cardiovascular risk, a clinical trial was designed and proceeded.
# A multicenter, randomized, double-blind non-inferiority trial was performed. The details of the clinical trial design have been published previously. An independent data and safety monitoring committee with access to unblinded data monitored the clinical trial. The statistical analysis for the data and the safety monitoring committee was performed by an independent statistical group (WebbWrites).
# The patients were regarded as having a history of major cardiovascular diseases, if they had myocardial infarction, hospitalization for unstable angina, stroke, hospitalization for transient ischemic attack, peripheral vascular disease, or diabetes mellitus symptoms. All participants provided a prior informed consent form.
# The patients were randomly assigned so that they received febuxostat or allopurinol administered once a day in a double-blind manner. The randomization was stratified according to the estimated creatinine clearance at baseline (patient group having an estimated creatinine clearance ≥60 ml per minute vs patient group having an estimated creatinine clearance ≥30 and <60 ml per minute).
# The dose of allopurinol was modified according to a kidney function. The patients with the estimated creatinine clearance 60 ml or more per minute i) initially received allopurinol at a dose of 300 mg once a day, and the dose was increased in 100 mg increments monthly until the patient had the serum uric acid concentration of less than 6.0 mg per deciliter or the dosage of allopurinol was 600 mg once a day. The patient having the estimated creatinine clearance of 30 ml or more and less than 60 ml per minute initially received 200 mg of allopurinol, and then the dose was increased in 100 mg increments until the patient either had the serum uric acid concentration of less than 6.0 mg per deciliter or was receiving the allopurinol dose of 400 mg once daily.
# The dose of febuxostat was not modified according to the kidney function. The patients who were randomly assigned to receive febuxostat initially received 40 mg once a daily, and continued to receive the same dosage if the serum uric acid concentration was less than 6.0 mg per deciliter after 2 weeks of the treatment. If the serum uric acid concentration was higher than 6.0 mg per deciliter at 2nd week visit, the dose of febuxostat was increased to 80 mg once daily for the remainder of the trial.
# During the period, the administration of a double-blind and double-dummy trial medications was guided by an interactive voice-response system which was a procedure to prevent unblinding for the patients whose dose was not adjusted. After completing dose adjustment, the urate level was concealed from the investigators, and the treatment was managed throughout the trial using the interactive voice-response system.
# Outpatient visits were conducted according to the following schedule: during screening and randomization, and at 2, 4, 6, 8, 10, 12, and 24 weeks after the randomization, and every 6 months during the subsequent years of the trial. The patients with reduced kidney function or, the patients aged 65 years or older at randomization were visited at 9 and 15 months for monitoring the serum chemical profile. If the patient agreed to be monitored, but would not return for study visit, telephone contact was made, but such method was not preferred or recommended.
# In order to confirm the effect of allopurinol and febuxostat on the kidney disease, the data obtained in the clinical trial described above was analyzed.
smiles,measurement,setting,value
Cc1nc(-c2ccc(OCC(C)C)c(C#N)c2)sc1C(=O)O [febuxostat],prevention or treatment of chronic kidney disease when serum uric acid maintained below 6,"blood glucose ≥126 mg/dl, DBP ≤80 mmHg, SBP ≤130 mmHg, serum uric acid ≥8 mg/dl, or gout history 10 years or more",effectively prevented or treated
same,eGFR Mean (95% CI),"Baseline UA≥ 8, Average UA <6, Baseline",61.87 (60.73-63.01) ml/min/1.73 m^2
same,eGFR Mean (95% CI),"Baseline UA≥ 8, Average UA <6, Month 3",62.09 (60.91-63.28) ml/min/1.73 m^2
same,eGFR Mean (95% CI),"Baseline UA≥ 8, Average UA <6, Month 18",62.99 (61.62-64.36) ml/min/1.73 m^2
same,eGFR Mean (95% CI),"Baseline UA≥ 8, Average UA <6, Month 24",63.15 (61.69-64.61) ml/min/1.73 m^2
same,eGFR Mean (95% CI),"Baseline UA≥ 8, Average UA <6, Month 30",63.85 (62.28-65.43) ml/min/1.73 m^2
same,eGFR Mean (95% CI),"Baseline UA≥ 8, Average UA <6, Month 36",64.04 (62.38-65.70) ml/min/1.73 m^2
same,eGFR Mean (95% CI),"Baseline UA≥ 8, Average UA <6, Month 42",63.75 (61.92-65.59) ml/min/1.73 m^2
same,eGFR Mean (95% CI),"Baseline UA≥ 8, Average UA <6, Month 48",65.32 (63.28-67.37) ml/min/1.73 m^2
same,eGFR Mean (95% CI),"Baseline UA≥ 8, Average UA <6, Month 54",66.35 (64.11-68.58) ml/min/1.73 m^2
same,eGFR Mean (95% CI),"Baseline UA≥ 8, Average UA <6, Month 60",66.48 (63.94-69.02) ml/min/1.73 m^2
same,eGFR Mean (95% CI),"Baseline UA≥ 8, Average UA <6, Week 2",62.03 (60.84-63.22) ml/min/1.73 m^2
same,eGFR Mean (95% CI),"Baseline UA≥ 8, Average UA ≥6, Baseline",63.17 (61.34-65.00) ml/min/1.73 m^2
same,eGFR Mean (95% CI),"Baseline UA≥ 8, Average UA ≥6, Month 3",63.02 (61.13-64.91) ml/min/1.73 m^2
same,eGFR Mean (95% CI),"Baseline UA≥ 8, Average UA ≥6, Month 18",61.52 (59.25-63.79) ml/min/1.73 m^2
same,eGFR Mean (95% CI),"Baseline UA≥ 8, Average UA ≥6, Month 24",62.08 (59.58-64.57) ml/min/1.73 m^2
same,eGFR Mean (95% CI),"Baseline UA≥ 8, Average UA ≥6, Month 30",60.68 (57.82-63.54) ml/min/1.73 m^2
same,eGFR Mean (95% CI),"Baseline UA≥ 8, Average UA ≥6, Month 36",61.32 (58.15-64.49) ml/min/1.73 m^2
same,eGFR Mean (95% CI),"Baseline UA≥ 8, Average UA ≥6, Month 42",60.90 (57.46-64.34) ml/min/1.73 m^2
same,eGFR Mean (95% CI),"Baseline UA≥ 8, Average UA ≥6, Month 48",61.54 (57.81-65.27) ml/min/1.73 m^2
same,eGFR Mean (95% CI),"Baseline UA≥ 8, Average UA ≥6, Month 54",62.30 (58.01-66.59) ml/min/1.73 m^2
same,eGFR Mean (95% CI),"Baseline UA≥ 8, Average UA ≥6, Month 60",61.06 (55.87-66.24) ml/min/1.73 m^2
same,eGFR Mean (95% CI),"Baseline UA≥ 8, Average UA ≥6, Week 2",63.18 (61.22-65.15) ml/min/1.73 m^2
same,eGFR Mean (95% CI),"Baseline blood glucose level ≥126, Average UA <6, Baseline",64.23 (62.54-65.93) ml/min/1.73 m^2
same,eGFR Mean (95% CI),"Baseline blood glucose level ≥126, Average UA <6, Month 3",63.54 (61.75-65.32) ml/min/1.73 m^2
same,eGFR Mean (95% CI),"Baseline blood glucose level ≥126, Average UA <6, Month 6",63.33 (61.52-65.14) ml/min/1.73 m^2
same,eGFR Mean (95% CI),"Baseline blood glucose level ≥126, Average UA <6, Month 12",64.32 (62.49-66.15) ml/min/1.73 m^2
same,eGFR Mean (95% CI),"Baseline blood glucose level ≥126, Average UA <6, Month 18",63.84 (61.79-65.89) ml/min/1.73 m^2
same,eGFR Mean (95% CI),"Baseline blood glucose level ≥126, Average UA <6, Month 24",64.49 (62.28-66.69) ml/min/1.73 m^2
same,eGFR Mean (95% CI),"Baseline blood glucose level ≥126, Average UA <6, Month 30",63.64 (61.38-65.91) ml/min/1.73 m^2
same,eGFR Mean (95% CI),"Baseline blood glucose level ≥126, Average UA <6, Month 36",64.30 (61.77-66.83) ml/min/1.73 m^2
same,eGFR Mean (95% CI),"Baseline blood glucose level ≥126, Average UA <6, Month 42",63.94 (61.12-66.76) ml/min/1.73 m^2
same,eGFR Mean (95% CI),"Baseline blood glucose level ≥126, Average UA <6, Month 48",65.35 (62.27-68.43) ml/min/1.73 m^2
same,eGFR Mean (95% CI),"Baseline blood glucose level ≥126, Average UA <6, Month 54",66.66 (63.21-70.10) ml/min/1.73 m^2
same,eGFR Mean (95% CI),"Baseline blood glucose level ≥126, Average UA <6, Month 60",67.78 (63.68-71.89) ml/min/1.73 m^2
same,eGFR Mean (95% CI),"Baseline blood glucose level ≥126, Average UA <6, Week 2",64.06 (62.29-65.83) ml/min/1.73 m^2
same,eGFR Mean (95% CI),"Baseline blood glucose level ≥126, Average UA ≥6, Baseline",65.94 (62.79-69.10) ml/min/1.73 m^2
same,eGFR Mean (95% CI),"Baseline blood glucose level ≥126, Average UA ≥6, Month 3",64.51 (61.21-67.81) ml/min/1.73 m^2
same,eGFR Mean (95% CI),"Baseline blood glucose level ≥126, Average UA ≥6, Month 6",64.04 (60.85-67.23) ml/min/1.73 m^2
same,eGFR Mean (95% CI),"Baseline blood glucose level ≥126, Average UA ≥6, Month 12",62.81 (59.35-66.28) ml/min/1.73 m^2
same,eGFR Mean (95% CI),"Baseline blood glucose level ≥126, Average UA ≥6, Month 18",62.28 (58.22-66.35) ml/min/1.73 m^2
same,eGFR Mean (95% CI),"Baseline blood glucose level ≥126, Average UA ≥6, Month 24",62.44 (58.21-66.68) ml/min/1.73 m^2
same,eGFR Mean (95% CI),"Baseline blood glucose level ≥126, Average UA ≥6, Month 30",61.66 (57.17-66.16) ml/min/1.73 m^2
same,eGFR Mean (95% CI),"Baseline blood glucose level ≥126, Average UA ≥6, Month 36",62.64 (57.30-67.99) ml/min/1.73 m^2
same,eGFR Mean (95% CI),"Baseline blood glucose level ≥126, Average UA ≥6, Month 42",62.33 (56.68-67.99) ml/min/1.73 m^2
same,eGFR Mean (95% CI),"Baseline blood glucose level ≥126, Average UA ≥6, Month 48",60.51 (54.59-66.44) ml/min/1.73 m^2
same,eGFR Mean (95% CI),"Baseline blood glucose level ≥126, Average UA ≥6, Month 54",60.70 (53.73-67.67) ml/min/1.73 m^2
same,eGFR Mean (95% CI),"Baseline blood glucose level ≥126, Average UA ≥6, Month 60",60.00 (50.87-69.14) ml/min/1.73 m^2
same,eGFR Mean (95% CI),"Baseline blood glucose level ≥126, Average UA ≥6, Week 2",64.56 (61.25-67.87) ml/min/1.73 m^2
same,eGFR Mean (95% CI),"DBP <80, Average UA <6, Baseline",62.24 (61.02-63.45) ml/min/1.73 m^2
